Test results reported in patent US10835533B2, “1 -((3S,4R)-4-(3-fluorophenyl)-1-(2-methoxyethyl)pyrrolidin-3-yl)-3-(4-methyl-3-(2-methylpyrimidin-5-yl)-1-phenyl-1H-pyrazol-5-yl)urea as a TrkA kinase inhibitor” (Array BioPharma Inc., priority 2014, dated 2020).

Assays:
[1] = target: T1, GST-tagged recombinant human p38α (Homo sapiens, UniProt Q16539); assay: p38α LanthaScreen Eu Kinase Binding Assay (Example G); conditions: TrkA versus p38α binding
T1 construct: GST-tagged cytoplasmic domain from Invitrogen, Catalog No. PV3305; purchased Invitrogen PV3305
Method: The p38α binding activity of Compound 1 was determined in a p38α LanthaScreen™ Eu Kinase Binding Assay. […] Three fold serial dilutions of Compound 1 in DMSO were added to a final percentage of 2% DMSO. After 60-minute incubation at 22° C., the reaction was measured using the EnVision multimode plate reader (PerkinElmer) via TR-FRET dual wavelength detection at […]. The percent of control was calculated using a ratiometric emission factor. The IC50 value was determined by fitting a four parameter model to the percent of control data.

TrkA = assay: Estimated inhibition of TrkA after oral dose of 10 mg/kg in rats (FIGS. 3 and 4); conditions: oral dose of 10 mg/kg in rats; relative to Compound 2 and Compound 3; calculated from plasma concentration and IC50
Method: FIGS. 3 and 4 illustrate the estimated inhibition of TrkA for Compound 1 after an oral dose of 10 mg/kg in rats of relative to Compound 2, and for Compound 1 relative to Compound 3, respectively. The curves in FIGS. 3 and 4 were calculated using the following equation: […]
where Imin and Imax are the minimum and maximum possible inhibition of the target, respectively, IC50 is the concentration at which the target is inhibited by 50%, C is the concentration of the inhibitor, and n is the Hill slope.

off-target kinases = assay: KinaseProfiler off-target kinase profiling, full kinase panel (Example H); type: biochemical; conditions: 10 μM, ATP near the Km
Method: Compound 1 was tested for off-target kinase activity at a concentration of 10 μM by Millipore, Inc. in their KinaseProfiler™ service against all the kinases available in their full kinase panel. Compound 1 was run in duplicate at a concentration of ATP near the Km for each individual kinase according to Millipore's specifications. Data are reported as percent of control (POC) and are the average of the two replicates.

AURKA = target: T2, AURKA (Homo sapiens, UniProt O14965); assay: KinaseProfiler kinase profiling; type: biochemical; conditions: 10 μM, ATP near Km
T2 construct: purchased Millipore, Inc. (KinaseProfiler service)
Method in brief: (§1)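 Screened once at 10 μM, n = 2, against the full available panel; ATP concentration was chosen near each kinase's Km. Mean POC reported.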

DAPK1 = target: T3, DAPK1 (Homo sapiens, UniProt P53355); assay: KinaseProfiler kinase profiling; type: biochemical; conditions: 10 μM, ATP near Km
T3 construct: purchased Millipore, Inc. (KinaseProfiler service)
T3 sequence (P53355 whole entry): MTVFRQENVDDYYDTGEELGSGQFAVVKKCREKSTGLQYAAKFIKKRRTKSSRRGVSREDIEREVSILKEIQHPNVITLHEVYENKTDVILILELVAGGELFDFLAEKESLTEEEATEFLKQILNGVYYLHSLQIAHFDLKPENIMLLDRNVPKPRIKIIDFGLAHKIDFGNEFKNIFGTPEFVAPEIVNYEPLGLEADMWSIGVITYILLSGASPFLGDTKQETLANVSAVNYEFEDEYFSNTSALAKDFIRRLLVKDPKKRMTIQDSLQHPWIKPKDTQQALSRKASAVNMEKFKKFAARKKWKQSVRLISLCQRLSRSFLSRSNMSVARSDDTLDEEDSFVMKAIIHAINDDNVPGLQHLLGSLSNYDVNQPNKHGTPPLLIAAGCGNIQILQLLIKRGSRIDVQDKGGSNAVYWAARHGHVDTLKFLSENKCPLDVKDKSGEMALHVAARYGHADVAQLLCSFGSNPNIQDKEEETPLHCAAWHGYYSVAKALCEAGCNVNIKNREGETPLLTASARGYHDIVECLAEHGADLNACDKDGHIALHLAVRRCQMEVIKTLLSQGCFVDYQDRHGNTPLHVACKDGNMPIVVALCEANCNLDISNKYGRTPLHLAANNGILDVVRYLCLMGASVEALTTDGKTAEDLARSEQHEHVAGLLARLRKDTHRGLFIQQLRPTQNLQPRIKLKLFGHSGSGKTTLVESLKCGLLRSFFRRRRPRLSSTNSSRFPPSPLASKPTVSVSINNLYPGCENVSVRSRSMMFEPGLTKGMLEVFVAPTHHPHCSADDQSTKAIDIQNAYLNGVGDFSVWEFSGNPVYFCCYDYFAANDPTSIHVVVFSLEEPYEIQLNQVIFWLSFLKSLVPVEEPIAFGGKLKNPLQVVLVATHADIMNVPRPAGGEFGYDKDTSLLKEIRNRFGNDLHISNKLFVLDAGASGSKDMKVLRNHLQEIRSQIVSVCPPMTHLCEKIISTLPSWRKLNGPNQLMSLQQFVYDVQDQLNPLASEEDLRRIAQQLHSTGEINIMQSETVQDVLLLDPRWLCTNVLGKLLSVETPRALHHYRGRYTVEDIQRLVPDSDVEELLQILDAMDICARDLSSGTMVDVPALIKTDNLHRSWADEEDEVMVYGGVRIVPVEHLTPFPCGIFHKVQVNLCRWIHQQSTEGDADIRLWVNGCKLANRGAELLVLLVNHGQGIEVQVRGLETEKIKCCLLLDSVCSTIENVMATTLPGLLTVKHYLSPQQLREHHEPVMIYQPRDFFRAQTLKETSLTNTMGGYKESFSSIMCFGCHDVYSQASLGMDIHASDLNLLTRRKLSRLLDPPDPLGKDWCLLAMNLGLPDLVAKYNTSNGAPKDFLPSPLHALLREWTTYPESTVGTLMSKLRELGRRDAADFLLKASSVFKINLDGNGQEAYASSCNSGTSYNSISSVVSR
Method in brief: as §1

ERK2 = target: T4, ERK2 (Homo sapiens, UniProt P28482); assay: KinaseProfiler kinase profiling; type: biochemical; conditions: 10 μM, ATP near Km
T4 construct: purchased Millipore, Inc. (KinaseProfiler service)
T4 sequence (P28482 whole entry): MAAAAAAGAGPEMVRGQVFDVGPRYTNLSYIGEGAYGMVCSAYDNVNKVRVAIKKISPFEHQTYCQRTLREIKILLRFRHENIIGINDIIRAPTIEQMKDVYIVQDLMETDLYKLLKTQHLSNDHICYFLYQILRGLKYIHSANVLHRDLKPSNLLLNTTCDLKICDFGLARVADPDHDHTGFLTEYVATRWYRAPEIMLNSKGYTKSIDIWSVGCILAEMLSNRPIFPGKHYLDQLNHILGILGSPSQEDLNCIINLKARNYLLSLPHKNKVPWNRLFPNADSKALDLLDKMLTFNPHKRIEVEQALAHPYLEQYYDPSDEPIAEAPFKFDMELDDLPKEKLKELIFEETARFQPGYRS
Method in brief: as §1

FGFR2 = target: T5, FGFR2 (Homo sapiens, UniProt P21802); assay: KinaseProfiler kinase profiling; type: biochemical; conditions: 10 μM, ATP near Km
T5 construct: purchased Millipore, Inc. (KinaseProfiler service)
T5 sequence (P21802 22-821): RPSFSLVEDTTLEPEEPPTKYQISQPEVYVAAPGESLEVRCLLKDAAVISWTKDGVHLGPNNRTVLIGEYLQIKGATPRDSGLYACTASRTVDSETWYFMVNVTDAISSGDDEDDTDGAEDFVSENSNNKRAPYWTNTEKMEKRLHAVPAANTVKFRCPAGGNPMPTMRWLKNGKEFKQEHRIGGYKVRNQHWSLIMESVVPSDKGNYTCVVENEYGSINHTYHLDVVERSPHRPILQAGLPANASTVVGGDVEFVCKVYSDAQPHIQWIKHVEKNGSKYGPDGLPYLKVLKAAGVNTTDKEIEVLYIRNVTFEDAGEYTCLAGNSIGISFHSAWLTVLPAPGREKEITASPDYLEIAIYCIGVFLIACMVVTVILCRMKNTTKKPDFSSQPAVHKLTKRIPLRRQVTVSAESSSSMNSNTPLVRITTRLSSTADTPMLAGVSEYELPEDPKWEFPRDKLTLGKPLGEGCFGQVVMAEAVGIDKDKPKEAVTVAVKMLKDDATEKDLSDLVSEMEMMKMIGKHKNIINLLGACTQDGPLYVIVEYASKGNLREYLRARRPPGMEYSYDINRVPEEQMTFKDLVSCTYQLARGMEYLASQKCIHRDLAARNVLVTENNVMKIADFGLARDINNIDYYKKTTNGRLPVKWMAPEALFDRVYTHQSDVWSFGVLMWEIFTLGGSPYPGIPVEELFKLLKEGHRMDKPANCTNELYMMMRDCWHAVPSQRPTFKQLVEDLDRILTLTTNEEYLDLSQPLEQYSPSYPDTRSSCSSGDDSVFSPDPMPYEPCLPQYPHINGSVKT
Method in brief: as §1

GSK3beta = target: T6, GSK3beta (Homo sapiens, UniProt P49841); assay: KinaseProfiler kinase profiling; type: biochemical; conditions: 10 μM, ATP near Km
T6 construct: purchased Millipore, Inc. (KinaseProfiler service)
Method in brief: as §1

HIPK2 = target: T7, HIPK2 (Homo sapiens, UniProt Q9H2X6); assay: KinaseProfiler kinase profiling; type: biochemical; conditions: 10 μM, ATP near Km
T7 construct: purchased Millipore, Inc. (KinaseProfiler service)
Method in brief: as §1

HIPK3 = target: T8, HIPK3 (Homo sapiens, UniProt Q9H422); assay: KinaseProfiler kinase profiling; type: biochemical; conditions: 10 μM, ATP near Km
T8 construct: purchased Millipore, Inc. (KinaseProfiler service)
Method in brief: as §1

MAP3K5 = target: T9, MAP3K5 (Homo sapiens, UniProt Q99683); assay: KinaseProfiler kinase profiling; type: biochemical; conditions: 10 μM, ATP near Km
T9 construct: purchased Millipore, Inc. (KinaseProfiler service)
T9 sequence (Q99683 whole entry): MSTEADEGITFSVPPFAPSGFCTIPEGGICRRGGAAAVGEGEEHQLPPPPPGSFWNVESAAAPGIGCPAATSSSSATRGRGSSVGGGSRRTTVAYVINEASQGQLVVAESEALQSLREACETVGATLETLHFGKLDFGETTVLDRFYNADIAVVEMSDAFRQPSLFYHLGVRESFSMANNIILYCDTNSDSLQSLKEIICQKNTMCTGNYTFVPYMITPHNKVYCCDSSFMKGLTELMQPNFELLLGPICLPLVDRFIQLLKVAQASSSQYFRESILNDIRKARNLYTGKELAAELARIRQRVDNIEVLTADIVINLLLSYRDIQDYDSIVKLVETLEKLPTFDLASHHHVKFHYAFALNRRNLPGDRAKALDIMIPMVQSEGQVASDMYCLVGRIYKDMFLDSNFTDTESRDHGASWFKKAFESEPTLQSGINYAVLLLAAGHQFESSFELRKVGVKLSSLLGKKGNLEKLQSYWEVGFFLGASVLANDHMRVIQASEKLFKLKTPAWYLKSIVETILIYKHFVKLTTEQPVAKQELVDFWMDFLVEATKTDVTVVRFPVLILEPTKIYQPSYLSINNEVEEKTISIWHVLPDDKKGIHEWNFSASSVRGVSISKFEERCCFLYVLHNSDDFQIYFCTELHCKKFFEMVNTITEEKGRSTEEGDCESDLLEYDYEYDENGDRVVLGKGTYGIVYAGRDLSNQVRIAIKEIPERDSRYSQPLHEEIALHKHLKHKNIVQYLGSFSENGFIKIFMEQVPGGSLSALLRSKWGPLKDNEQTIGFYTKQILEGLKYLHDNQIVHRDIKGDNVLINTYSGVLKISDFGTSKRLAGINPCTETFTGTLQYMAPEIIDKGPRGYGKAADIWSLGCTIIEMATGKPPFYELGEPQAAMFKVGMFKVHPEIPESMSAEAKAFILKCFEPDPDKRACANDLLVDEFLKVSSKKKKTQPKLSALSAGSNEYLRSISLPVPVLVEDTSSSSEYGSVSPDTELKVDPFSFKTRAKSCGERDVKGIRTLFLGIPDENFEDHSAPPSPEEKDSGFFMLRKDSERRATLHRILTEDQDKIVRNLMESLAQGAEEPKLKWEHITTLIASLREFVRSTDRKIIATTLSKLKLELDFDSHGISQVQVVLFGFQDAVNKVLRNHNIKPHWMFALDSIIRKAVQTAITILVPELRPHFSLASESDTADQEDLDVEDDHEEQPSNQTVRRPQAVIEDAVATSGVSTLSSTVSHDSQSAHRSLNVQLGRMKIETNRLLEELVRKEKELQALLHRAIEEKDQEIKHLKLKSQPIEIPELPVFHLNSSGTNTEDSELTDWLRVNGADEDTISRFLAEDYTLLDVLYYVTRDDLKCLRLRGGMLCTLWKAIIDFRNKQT
Method in brief: as §1

MEK1 = target: T10, MEK1 (Homo sapiens, UniProt Q02750); assay: KinaseProfiler kinase profiling; type: biochemical; conditions: 10 μM, ATP near Km
T10 construct: purchased Millipore, Inc. (KinaseProfiler service)
T10 sequence (Q02750 whole entry): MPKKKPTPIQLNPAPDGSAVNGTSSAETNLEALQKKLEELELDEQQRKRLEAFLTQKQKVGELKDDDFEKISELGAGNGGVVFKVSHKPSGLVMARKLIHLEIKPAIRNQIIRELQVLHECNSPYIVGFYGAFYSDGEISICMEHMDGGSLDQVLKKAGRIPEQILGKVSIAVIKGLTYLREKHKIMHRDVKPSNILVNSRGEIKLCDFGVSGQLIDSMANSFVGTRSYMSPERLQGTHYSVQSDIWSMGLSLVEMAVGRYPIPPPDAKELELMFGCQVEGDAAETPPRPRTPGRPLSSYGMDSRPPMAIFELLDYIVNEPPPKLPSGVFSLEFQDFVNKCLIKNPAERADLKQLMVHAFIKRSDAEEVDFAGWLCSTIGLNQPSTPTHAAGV
Method in brief: as §1

Met = target: T11, Met (Homo sapiens, UniProt P08581); assay: KinaseProfiler kinase profiling; type: biochemical; conditions: 10 μM, ATP near Km
T11 construct: purchased Millipore, Inc. (KinaseProfiler service)
Method in brief: as §1

PAK4 = target: T12, PAK4 (Homo sapiens, UniProt O96013); assay: KinaseProfiler kinase profiling; type: biochemical; conditions: 10 μM, ATP near Km
T12 construct: purchased Millipore, Inc. (KinaseProfiler service)
Method in brief: as §1

PASK = target: T13, PASK (Homo sapiens, UniProt Q96RG2); assay: KinaseProfiler kinase profiling; type: biochemical; conditions: 10 μM, ATP near Km
T13 construct: purchased Millipore, Inc. (KinaseProfiler service)
Method in brief: as §1

PDGFRbeta = target: T14, PDGFRbeta (Homo sapiens, UniProt P09619); assay: KinaseProfiler kinase profiling; type: biochemical; conditions: 10 μM, ATP near Km
T14 construct: purchased Millipore, Inc. (KinaseProfiler service)
Method in brief: as §1

PRKG1alpha = target: T15, PRKG1alpha (Homo sapiens, UniProt Q13976); assay: KinaseProfiler kinase profiling; type: biochemical; conditions: 10 μM, ATP near Km
T15 construct: purchased Millipore, Inc. (KinaseProfiler service)
Method in brief: as §1

SRPK2 = target: T16, SRPK2 (Homo sapiens, UniProt P78362); assay: KinaseProfiler kinase profiling; type: biochemical; conditions: 10 μM, ATP near Km
T16 construct: purchased Millipore, Inc. (KinaseProfiler service)
Method in brief: as §1

Txk = target: T17, Txk (Homo sapiens, UniProt P42681); assay: KinaseProfiler kinase profiling; type: biochemical; conditions: 10 μM, ATP near Km
T17 construct: purchased Millipore, Inc. (KinaseProfiler service)
T17 sequence (P42681 whole entry): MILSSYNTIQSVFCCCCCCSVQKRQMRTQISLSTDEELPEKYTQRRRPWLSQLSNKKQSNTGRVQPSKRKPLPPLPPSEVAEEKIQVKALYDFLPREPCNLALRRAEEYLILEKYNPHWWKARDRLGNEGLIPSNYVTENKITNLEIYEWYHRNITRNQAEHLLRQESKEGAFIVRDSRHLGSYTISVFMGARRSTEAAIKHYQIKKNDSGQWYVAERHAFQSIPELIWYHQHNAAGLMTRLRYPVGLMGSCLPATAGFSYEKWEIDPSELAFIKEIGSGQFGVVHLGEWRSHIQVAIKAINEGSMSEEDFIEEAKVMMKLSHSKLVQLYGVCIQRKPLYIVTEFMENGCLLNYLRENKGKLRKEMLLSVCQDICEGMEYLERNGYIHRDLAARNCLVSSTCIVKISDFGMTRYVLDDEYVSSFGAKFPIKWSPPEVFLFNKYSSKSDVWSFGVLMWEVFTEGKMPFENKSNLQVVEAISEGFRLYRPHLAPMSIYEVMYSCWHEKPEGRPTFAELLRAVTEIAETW
Method in brief: as §1

eEF-2K = target: T18, eEF-2K (Homo sapiens, UniProt O00418); assay: KinaseProfiler kinase profiling; type: biochemical; conditions: 10 μM, ATP near Km
T18 construct: purchased Millipore, Inc. (KinaseProfiler service)
Method in brief: as §1

fold more potent against TrkA than p38α [1]: 1000 fold
activity against off-target kinases (off-target kinases): largely inactive
Avg POC (AURKA): 115 POC
Avg POC (DAPK1): 114 POC
Avg POC (ERK2): 100 POC
Avg POC (FGFR2): 99 POC
Avg POC (GSK3beta): 112 POC
Avg POC (HIPK2): 101.5 POC
Avg POC (HIPK3): 90 POC
Avg POC (MAP3K5): 101 POC
Avg POC (MEK1): 103.5 POC
Avg POC (Met): 124.5 POC
Avg POC (PAK4): 97 POC
Avg POC (PASK): 137.5 POC
Avg POC (PDGFRbeta): 96 POC
Avg POC (PRKG1alpha): 109.5 POC
Avg POC (SRPK2): 96.5 POC
Avg POC (Txk): 67 POC
Avg POC (eEF-2K): 112.5 POC
Compound: COCCN1C[C@@H](NC(=O)Nc2c(C)c(-c3cnc(C)nc3)nn2-c2ccccc2)[C@H](c2cccc(F)c2)C1 [Compound 1, 1-((3S,4R)-4-(3-fluorophenyl)-1-(2-methoxyethyl)pyrrolidin-3-yl)-3-(4-methyl-3-(2-methylpyrimidin-5-yl)-1-phenyl-1H-pyrazol-5-yl)urea]
estimated inhibition of TrkA (TrkA): higher
